Experimental data taken from patent publication US20260234140A1, “PYRIDOPYRIMIDINE DERIVATIVE AND USE THEREOF” (SUNSHINE LAKE PHARMA CO., LTD., priority 2023, published 2026).

Test system: PD1/PD-L1 pathway
Experiment: PD1/PD-L1 Blockade Bioassay, inhibition of the PD1/PD-L1 pathway at the cellular level (luciferase reporter, PD-1 Jukat T cells co-cultured with PD-L1 aAPC/CHO-K1 cells)
Assay type: cell-based
Conditions: T-cell; for EC50: PD-1 Jukat T cells + PD-L1 aAPC/CHO-K1 cells, 6 h co-culture, ONE-Glo luciferase readout; for Emax: maximum % Activity relative to atezolizumab (set to 100%)
Experimental: Experiment 1: Detecting the Inhibitory Activity of Compounds on the PD1/PD-L1 Pathway at the Cellular Level Using the PD1/PD-L1 Blockade Bioassay Method
PD-1 Jukat T cells were revived and cultured with 1640 medium containing 100 μg/mL Hygromycin B, […] Puromycin, 10% FBS and 1% dual antibody; PD-L1 aAPC/CHO-K1 cells were revived and cultured with F12K medium containing 100 μg/mL Hygromycin B, 200 μg/mL G418, 10% FBS and 1% dual antibody.
The revived cells need to be passaged 2-3 times. When the cells enter the exponential growth phase with good growth status, the PD-L1 aAPC/CHO-K1 was digested with trypsin, and the cells were resuspended in F12K containing 5% FBS and adjusted to a density of 5×10^5 cells/mL. 20 μl/well were plated in a 384-well plate (10,000 cells/well) and incubated in an incubator overnight for 16-20 h.
a Preparation of compound stock solution: Dissolve the compound to be tested in DMSO to prepare a 20 mM stock solution.
b Compound gradient dilution: dilute the compound in 1640 medium containing 5% FBS without antibiotics or phenol red, and make 3-fold gradient dilutions to prepare 10 concentration gradients (2×).
c Adding drugs: Take out the cell culture plate, discard the supernatant, add 20 μl/well of the prepared compound, and incubate in the incubator for 1.5 h.
PD-1 Jukat T cells were collected, washed once with PBS, and resuspended in 1640 medium containing 5% FBS without antibiotics or phenol red. The density was adjusted to 1×10^6 cells/mL. 20 μl PD-1 Jukat T cells (20,000 cells/well) were added to each well and incubated in the incubator for 6 h.
ONE-Glo™ Luciferase Assay reagent was thawed to room temperature in advance and then added to a 384-well plate at 40 µl/well. Incubate in the dark for 15 minutes and read the […] signal on a plate reader.
[formula] • Among them, % Activity: % Activity • RLU: Resulting Luminescence unit • RLUvehicle: Average RLU value of negative control wells on each plate • RLUpositive: Average RLU value of positive control wells on each plate • Vehicle control: DMSO (0.1%) corresponding to the test value was used as negative control (its % Activity was 0%); • Positive control: The highest detection value at the atezolizumab administration concentration was used as the positive control (its % Activity was 100%). • (2) EC50 value calculation method: The EC50 value was obtained by the nonlinear fitting formula of Graph Pad Prism 8.0 software. The calculation formula is as follows:
Y=Bottom+(Top−Bottom)/(1+10^((Log EC50−X)×HillSlope)) • X: log of activator concentration (logarithm of compound concentration); Y: % Activity • (3) Emax definition: The maximum % Activity value corresponding to the maximum activation value of the compound relative to atezolizumab (the activation value is set to 100%).

| Structure (SMILES) | EC50 | Emax |
| --- | --- | --- |
| COc1nc(-c2cccc(-c3cccc(Nc4nc(C(F)F)nc5cc(CN6CC[C@@H](O)C6)cnc45)c3C)c2Cl)ccc1CN[C@H]1CC[C@H](C(=O)O)CC1 [Example 2, (1r,4r)-4-(((6-(2-chloro-3′-((2-(difluoromethyl)-7-(((R)-3-hydroxypyrrolidin-1-yl)methyl)pyrido[3,2-d]pyrimidin-4-yl)amino)-2′-methyl-[1,1′-biphenyl]-3-yl)-2-methoxypyridin-3-yl)methyl)amino)cyclohexane-1-carboxylic acid] | 98.3 nM | 118% |
| COc1nc(-c2cccc(-c3cccc(Nc4nc(C(F)F)nc5cc(CN6CC[C@@H](O)C6)cnc45)c3C)c2Cl)ccc1CNC12CCC(C(=O)O)(CC1)C2 [Example 9, (R)-4-(((6-(2-chloro-3′-((2-(difluoromethyl)-7-((3-hydroxypyrrolidin-1-yl)methyl)pyrido[3,2-d]pyrimidin-4-yl)amino)-2′-methyl-[1,1′-biphenyl]-3-yl)-2-methoxypyridin-3-yl)methyl)amino)bicyclo[2.2.1]heptane-1-carboxylic acid] | 90.7 nM | 117% |
| COc1nc(-c2cccc(-c3cccc(Nc4nc(C(F)F)nc5cc(CN6CC[C@@H](O)C6)cnc45)c3C)c2Cl)ccc1CN(C)CC12CCC(C(=O)O)(CC1)C2 [Example 10, (R)-4-((((6-(2-chloro-3′-((2-(difluoromethyl)-7-((3-hydroxypyrrolidin-1-yl)methyl)pyrido[3,2-d]pyrimidin-4-yl)amino)-2′-methyl-[1,1′-biphenyl]-3-yl)-2-methoxypyridin-3-yl)methyl)(methyl)amino)methyl)bicyclo[2.2.1]heptane-1-carboxylic acid] | 70.7 nM | 79.3% |
| [2H]C([2H])([2H])N(Cc1ccc(-c2cccc(-c3cccc(Nc4nc(C(F)F)nc5cc(CN6CC[C@@H](O)C6)cnc45)c3C)c2Cl)nc1OC)[C@H]1CC[C@H](C(=O)O)CC1 [Example 13, (1r,4r)-4-(((6-(2-chloro-3′-((2-(difluoromethyl)-7-(((R)-3-hydroxypyrrolidin-1-yl)methyl)pyrido[3,2-d]pyrimidin-4-yl)amino)-2′-methyl-[1,1′-biphenyl]-3-yl)-2-methoxypyridin-3-yl)methyl)(methyl-d3)amino)cyclohexane-1-carboxylic acid] | 38.2 nM | 104% |
| COc1nc(-c2cccc(-c3cccc(Nc4nc(C(F)F)nc5cc(CN6CC[C@@H](O)C6)cnc45)c3C)c2Cl)cnc1CN(C)C[C@H]1CC[C@H](C(=O)O)CC1 [Example 14, (1r,4r)-4-((((5-(2-chloro-3′-((2-(difluoromethyl)-7-(((R)-3-hydroxypyrrolidin-1-yl)methyl)pyrido[3,2-d]pyrimidin-4-yl)amino)-2′-methyl-[1,1′-biphenyl]-3-yl)-3-methoxypyrazin-2-yl)methyl)(methyl)amino)methyl)cyclohexane-1-carboxylic acid] | 31.3 nM | 103% |
| COc1nc(-c2cccc(-c3cccc(Nc4nc(C(F)F)nc5cc(CN6CC[C@@H](O)C6)cnc45)c3C)c2Cl)cnc1CN1CCC(C(=O)O)CC1 [Example 15, (R)-1-((5-(2-chloro-3′-((2-(difluoromethyl)-7-((3-hydroxypyrrolidin-1-yl)methyl)pyrido[3,2-d]pyrimidin-4-yl)amino)-2′-methyl-[1,1′-biphenyl]-3-yl)-3-methoxypyrazin-2-yl)methyl)piperidine-4-carboxylic acid] | 41.8 nM | 97% |
| COc1nc(-c2cccc(-c3cccc(Nc4nc(C(F)F)nc5cc(CN6CC[C@@H](O)C6)cnc45)c3Cl)c2Cl)ccc1CN(C)[C@H]1CC[C@H](C(=O)O)CC1 [Example 16, (1r,4r)-4-(((6-(2,2′-dichloro-3′-((2-(difluoromethyl)-7-(((R)-3-hydroxypyrrolidin-1-yl)methyl)pyrido[3,2-d]pyrimidin-4-yl)amino)-[1,1′-biphenyl]-3-yl)-2-methoxypyridin-3-yl)methyl)(methyl)amino)cyclohexane-1-carboxylic acid] | 28.1 nM | 107% |
| COc1nc(-c2cccc(-c3cccc(Nc4nc(C(F)F)nc5cc(CN6CC(OC)C6)cnc45)c3C)c2Cl)cnc1CN(C)[C@H]1CC[C@H](C(=O)O)CC1 [Example 18, (1r,4r)-4-(((5-(2-chloro-3′-((2-(difluoromethyl)-7-((3-methoxyazetidin-1-yl)methyl)pyrido[3,2-d]pyrimidin-4-yl)amino)-2′-methyl-[1,1′-biphenyl]-3-yl)-3-methoxypyrazin-2-yl)methyl)(methyl)amino)cyclohexane-1-carboxylic acid] | 71.1 nM | 68% |
| COc1nc(-c2cccc(-c3cccc(Nc4nc(C(F)F)nc5cc(CN6CC(C)(O)C6)cnc45)c3C)c2Cl)cnc1CN(C)[C@H]1CC[C@H](C(=O)O)CC1 [Example 19, (1r,4r)-4-(((5-(2-chloro-3′-((2-(difluoromethyl)-7-((3-hydroxy-3-methylazetidin-1-yl)methyl)pyrido[3,2-d]pyrimidin-4-yl)amino)-2′-methyl-[1,1′-biphenyl]-3-yl)-3-methoxypyrazin-2-yl)methyl)(methyl)amino)cyclohexane-1-carboxylic acid] | 43.2 nM | 80% |
| COc1nc(-c2cccc(-c3cccc(Nc4nc(C(F)F)nc5cc(CN6CCCC6)cnc45)c3C)c2Cl)cnc1CN(C)[C@H]1CC[C@H](C(=O)O)CC1 [Example 20, (1r,4r)-4-(((5-(2-chloro-3′-((2-(difluoromethyl)-7-(pyrrolidin-1-ylmethyl)pyrido[3,2-d]pyrimidin-4-yl)amino)-2′-methyl-[1,1′-biphenyl]-3-yl)-3-methoxypyrazin-2-yl)methyl)(methyl)amino)cyclohexane-1-carboxylic acid] | 63.5 nM | 108% |
| COc1nc(-c2cccc(-c3cccc(Nc4nc(C(F)F)nc5cc(CN6CCC(O)CC6)cnc45)c3C)c2Cl)cnc1CN(C)[C@H]1CC[C@H](C(=O)O)CC1 [Example 21, (1r,4r)-4-(((5-(2-chloro-3′-((2-(difluoromethyl)-7-((4-hydroxypiperidin-1-yl)methyl)pyrido[3,2-d]pyrimidin-4-yl)amino)-2′-methyl-[1,1′-biphenyl]-3-yl)-3-methoxypyrazin-2-yl)methyl)(methyl)amino)cyclohexane-1-carboxylic acid] | 105 nM | 65% |
| COc1nc(-c2cccc(-c3cccc(Nc4nc(C(F)F)nc5cc(CN6CC[C@@H](CO)C6)cnc45)c3C)c2Cl)cnc1CN(C)[C@H]1CC[C@H](C(=O)O)CC1 [Example 23, (1r,4r)-4-(((5-(2-chloro-3′-((2-(difluoromethyl)-7-(((R)-3-(hydroxymethyl)pyrrolidin-1-yl)methyl)pyrido[3,2-d]pyrimidin-4-yl)amino)-2′-methyl-[1,1′-biphenyl]-3-yl)-3-methoxypyrazin-2-yl)methyl)(methyl)amino)cyclohexane-1-carboxylic acid] | 44.4 nM | 74% |
| COc1nc(-c2cccc(-c3cccc(Nc4nc(C(F)F)nc5cc(CN6CC[C@@H](O)C6)cnc45)c3C)c2C)cnc1CN(C)[C@H]1CC[C@H](C(=O)O)CC1 [Example 27, (1r,4r)-4-(((5-(3′-((2-(difluoromethyl)-7-(((R)-3-hydroxypyrrolidin-1-yl)methyl)pyrido[3,2-d]pyrimidin-4-yl)amino)-2,2′-dimethyl-[1,1′-biphenyl]-3-yl)-3-methoxypyrazin-2-yl)methyl)(methyl)amino)cyclohexane-1-carboxylic acid] | 112 nM | 63% |
| COc1nc(-c2cccc(-c3cccc(Nc4nc(C(F)F)nc5cc(CN6CC[C@H](CO)C6)cnc45)c3C)c2Cl)cnc1CN(C)[C@H]1CC[C@H](C(=O)O)CC1 [Example 28, (1r,4r)-4-(((5-(2-chloro-3′-((2-(difluoromethyl)-7-(((S)-3-(hydroxymethyl)pyrrolidin-1-yl)methyl)pyrido[3,2-d]pyrimidin-4-yl)amino)-2′-methyl-[1,1′-biphenyl]-3-yl)-3-methoxypyrazin-2-yl)methyl)(methyl)amino)cyclohexane-1-carboxylic acid] | 49.5 nM | 95% |
